Read-outs that look alike come from different tables or passages of the source. Where a SMILES comes first, the peptide text is derived from it. Where no end group is shown, it is not given here.
Target: T1, Omi PDZ (GST-Omi PDZ fusion protein) (Homo sapiens, UniProt O43464)
T1 construct: DNA fragment encoding hOmi PDZ domain was cloned into BamHI/XhoI sites of pGEX6P-3 plasmid, creating a GST-hOmiPDZ fusion protein; made in house; host or cells: E. coli BL21(DE3), plasmid pGEX6P-3
T1 sequence (O43464 359-458): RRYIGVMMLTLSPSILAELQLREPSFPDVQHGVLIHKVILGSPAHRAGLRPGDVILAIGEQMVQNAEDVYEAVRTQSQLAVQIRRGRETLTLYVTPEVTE
Experiment: Competition ELISA affinity assay: peptide blocks GST-Omi PDZ binding to immobilized biotinylated peptide
Conditions: for IC50 (μM) / IC50: competition ELISA; for fold lower affinity (IC50 increase) relative to SWTMFWV (hOmi_c1): compared with peptide SWTMFWV (hOmi_c1)
Protocol: Affinity Assays—The binding affinities of peptides for Omi PDZ were determined as IC50 values using a previously described competition ELISA (18). […] Assay plates were prepared by immobilizing an amino-terminally biotinylated peptide (biotin-GWTMFWV) on maxisorp plates coated with NeuTravidin and blocked with BSA. A fixed concentration of GST-Omi PDZ fusion protein (20 nM) in PBS, 0.5% BSA, 0.1% Tween 20 (PBT buffer) was preincubated for 1 h with serial dilutions of peptide and then transferred to the assay plates. After 1 h incubation, the plates were washed with PBS, 0.05% Tween 20, incubated for 30 min with HRP/anti-GST antibody (1:10,000) in PBT buffer, washed again, and detected with 3,3′,5,5′-Tetramethyl-benzidine/H2O2 (TMB) peroxidase substrate.
The binding affinity of this ligand to Omi PDZ was measured with ELISA competition assay. […] PDZ-opt is an optimized peptide ligand of Omi PDZ derived from a chemically synthesized peptide library (11) with totally different sequence motif from that of the ligands derived from phage libraries. […] Peptides from libC and peptides Mxi2 and PDZ-opt were synthesized with acetylated N termini and free C termini, unless indicated otherwise. Peptides from libN were synthesized with free N termini and amidation at C termini.

[1] = 20 nM GST-Omi PDZ, immobilized biotinylated high affinity peptide, mean
[2] = 20 nM GST-Omi PDZ, immobilized biotinylated high affinity peptide, mean, read-out: IC50
[3] = IC50 (μM), 20 nM GST-Omi PDZ, immobilized biotinylated high affinity peptide, mean

S H W W G (SHWWG) [hOmi_n1_t4]
IC50 (μM) [1]: NDI

SWTMFWV [hOmi_c3, S W T M F W V-CONH2]
IC50 (μM) [1]: NDI

WGGWLG [hOmi_n1_t8, W G G W L G]
IC50 (μM) [1]: NDI

Ac-SWTMFAV [hOmi_c1_A2, S W T M F A V]
IC50 (unit printed in the cell (mM), read-out: IC50): > 1 mM

H-SHWWGGWL-NH2 [hOmi_n1_t1, S H W W G G W L]
IC50 [2]: 0.0176 ± 0.0039 mM

SHWAGGWL [hOmi_n1_A2, S H W A G G W L]
IC50 (μM) [1]: NDI

NC(=O)[C@H](Cc1c[nH]c2ccccc12)NC(=O)[C@H](Cc1c[nH]c2ccccc12)NC(=O)[C@@H](N)Cc1c[nH]cn1 [hOmi_n1_t9, H W W] (H-His-Trp-Trp-NH2)
IC50 [2]: 0.108 ± 0.0322 mM
effect on binding to Omi PDZ, in words (SHWWGGWLG series) (truncations of SHWWGGWLG (libN), C terminus amidated): comparable affinity as tetrapeptide SHWW

Ac-SWTMFWV [hOmi_c1, S W T M F W V]
IC50 [3]: 0.0033 mM

SHWWGG [hOmi_n1_t3, S H W W G G]
IC50 (μM) [1]: NDI

NC(=O)[C@H](Cc1c[nH]c2ccccc12)NC(=O)[C@H](Cc1c[nH]c2ccccc12)NC(=O)[C@H](Cc1c[nH]cn1)NC(=O)[C@@H](N)CO [hOmi_n1_t5, S H W W] (H-SHWW-NH2)
fold lower affinity relative to SHWWGGWLG (hOmi_n1) (truncation series of SHWWGGWLG, C terminus amidated): 3 fold

Ac-MDIELVMI [Mxi2, M D I E L V M I, reference compound]
IC50 [3]: > 0.5 mM

Ac-RFPHFWV-OH [hOmi_c2, R F P H F W V]
fold lower affinity (IC50 increase) relative to SWTMFWV (hOmi_c1): 50 fold

SHAWGGWL [hOmi_n1_A3, S H A W G G W L]
IC50 (μM) [1]: NDI

Ac-GQYYFV-OH [PDZ-Opt, G Q Y Y F V, reference compound]
fold lower affinity (IC50 increase) relative to SWTMFWV (hOmi_c1): 5 fold
IC50 [2]: 0.0176 ± 0.0056 mM

CC(=O)N[C@@H](Cc1ccccc1)C(=O)N[C@@H](Cc1c[nH]c2ccccc12)C(=O)N[C@H](C(=O)O)C(C)C [hOmi_c1_t4, F W V] (Ac-Phe-Trp-Val-OH)
fold lower affinity (IC50 increase) relative to SWTMFWV (hOmi_c1): > 30 fold
IC50 [2]: 0.118 ± 0.0321 mM

WWGGWLG [hOmi_n1_t7, W W G G W L G]
IC50 (μM) [1]: NDI

Reference: patent publication US20060003348A1, “Omi PDZ modulators” (GENENTECH. INC., priority 2004, published 2006)
